Assay results: patent US4130514A, “Synthesis of peptides” (Armour Pharmaceutical Company, priority 1978, dated 1978)

Test: adrenocorticotropic activity of the purified peptides (no method described)
Conditions: peptide purified by carboxymethylcellulose ion-exchange chromatography and Sephadex gel filtration; result in words only

Which adrenocorticotropic activity does the source give for “[D-ala^1, asn^25 ]-ACTH-(1-25) [[D-ala^1 ,gln^25]-ACTH-(1-25)]” here?
Its adrenocorticotropic activity is “found to have adrenocorticotropic activity”.
